Experimental data reported in patent US20240016924A1, “NEW ADJUVANT TO IMPROVE THE INNATE IMMUNITY” (INSTITUT NATIONAL DE LA SANTÉ ET DE LA RECHERCHE MÉDICALE, priority 2020, published 2024).

What was measured:
[1] = system: primary human nasal epithelial cells (HNECs); experiment: TSLP secretion in primary human nasal epithelial cells; type: cell-based; settings: GalCer-dependent
Procedure: Primary human nasal epithelial cells (HNECs, purchased from PromoCell, Heidelberg, Germany) were isolated from nasal septum or adenoids of healthy donors. Cells from two independent donors were obtained. HNECs were cultured in airway epithelial cell basal medium (PromoCell) and supplemented with airway epithelial cell growth SupplementMix (PromoCell) and only cells from passage 2 to 6 were used.
(§1) TSLP, IL-25/IL-17E, IL-33, IFN-γ, IL-10, IL-12/23p40, IL-4, IL-5, IL-6, IL-13, TNF-α, MMP-9, IL-8/CXCL8, […], MDC/CCL22, TARC/CCL17, APRIL and BAFF were measured in culture supernatants from indicated experiments with custom multiplex Luminex assays (Bio-techne) according to the manufacturer's instructions. Additionally, when indicated TSLP was measured in culture supernatants by enzyme-linked immunosorbent assay (ELISA) with a limit of detection of 8 pg/ml (Thermo Fisher) according to the manufacturer's instructions.

[2] = system: primary HNECs; experiment: MicroRNA microarray analysis and miR qPCR after P1 stimulation; type: cell-based, human
Procedure: Confluent HNECs in 12-well plate were stimulated with medium or P1 (clade B, 125 μM) for 6 hours, at 37° C. Total RNA was extracted using Trizol. Before analysis, lfTSLP RNA up-regulation was confirmed by qPCR as described above and RNA quality was assessed with Agilent 2100 bioanalyzer according to manufacturer instructions (Agilent Technologies). Three untreated and treated paired samples from three independent experiments were analyzed by GeneChip miRNA 4.0 arrays (Affymetrix, Thermo Fisher) containing probes for 2578 human mature microRNAs and 2025 pre-mature microRNAs (https://assets.thermofisher.com/TFS-Assets/LSG/brochures/miRNA_4-0_and_4-1_datasheet.pdf). Potential microRNA targets were analyzed with the Ingenuity Pathway Analysis (IPA) software (Qiagen).
The quantification and knockdown of microRNA were performed as previously described with some modifications (Zhou, Xu et al. 2018). Briefly, total RNA was purified using MinElute PCR Purification Kit (Qiagen), the expression level of miR-4485 was quantified with TaqMan Small RNA Assays (Thermo Fisher). Reactions were performed in triplicates, and U6 was used as endogenous control. In order to knockdown miR-4485, 70% confluent HNEC cells were transfected with anti-miR-4485 inhibitor (67 nM, Qiagen) or mock inhibitor (miSCRIPT inhibitor negative control, 67 nM, Qiagen) using Lipofectamine RNAiMAX (Invitrogen) as described by the manufacturer. 36 h after transfection, miR-4485 expression, when quantified as described above, was reduced by 50-60% in anti-miR-4485 transfected cells as compared to anti-miR control (n=3 independent experiments).

[3] = system: nasal RPMI cells; experiment: Cytokines and chemokines quantification (Luminex), nasal RPMI cells; type: cell-based, human; settings: 125 μM, 24 hrs
Procedure: as §1
We next investigated whether, in addition to TSLP, P1 could stimulate epithelial secretion of additional immune factors prone to attract antigen presenting cells (APCs). […] Together with TSLP (Zhou, Xu et al. 2018), this set of immune factors could facilitate recruitment of APCs to the mucosal surface for initiation of an immune response, since CCL20 and CCL2 chemo-attract macrophages and immature dendritic cells (DCs), and MMP-9 degrades the extracellular matrix and facilitates the migration of immune cells in or out the epithelium. Treg cells have IgA-inducing functions and require RA, TGF-b1, IL-10, and TSLP from intestinal epithelial cells and DCs. So, we assumed IL-10 released from either EC or DC may contribute to IgA class switching (Gutzeit, Magri, et al. 2014).

[4] = system: Monocyte-derived DCs; experiment: DC-EC co-culture and DC activation; type: cell-based, human
Procedure: Monocyte-derived DCs (DCs) were generated from primary human monocytes obtained from PBMCs (purity>98%) as described (Sallusto and Lanzavecchia 1994, Magérus-Chatinet, Yu et al. 2007). In brief, human peripheral blood mononuclear cells (PBMC) were separated from healthy donors blood (EFS, Paris, France), and monocytes were purified from PBMC by negative selection according to manufacturer instructions (StemCell Technologies, France). DCs were obtained by incubating monocytes for 7 days in complete medium containing GM-CSF (100 ng/ml) and IL-4 ([…]).
Three DC culture systems were developed. Monocytes derived DCs (5×10^5 cells) were incubate for 24 h in medium alone and considered as non-mucosal DCs (DCs) or co-cultured with nasal epithelial cell (RPMI-2650 cell line) monolayer in 24-well plate (DC-EC or eduDC systems for 24 hours at 37° C. In turn, DCs were either further cultured with ECs during P1 stimulation (DC-ECs) or separated from EC and transferred into a new plate (eduDCs) for further P1 treatment. Subsequently, P1 (clade B, 125 μM) or medium were added to each of the DCs, DC-ECs or eduDCs cultures for 16 hrs. DCs were collected for surface staining with allophycocyanin (APC)-conjugated anti-CD86, R-phycoerythrin (PE)-conjugated anti-CD83, APC-conjugated anti-TSLPR, PE-conjugated anti-IL-7Rα antibodies (all from Bio-Techne). Specific labeling was quantified by flow cytometry using a Guava EasyCyte flow cytometer and the InCyte software (Merck) described (Duchemin, Khamassi et al. 2018). Culture supernatant were collected and frozen at −80° C. for subsequent cytokine and chemokine analyses.
In particular, mucosal DCs modulate their functions by interacting with epithelial cells (ECs) including via epithelial secretion of TSLP (Rimoldi, Chieppa et al. 2005, Biton, Levin et al. 2011). Thus, we established a simplified mucosal DC model, by co-culturing DCs and nasal ECs (RPMI-2650 cell line), thereby mimicking the nasal mucosal environment. DCs were first ‘educated’ by a 24 hr co-culture with ECs. Subsequently, these ‘educated’ DCs were either maintained in culture with ECs and referred to as DC-EC, or separated from the epithelium and referred to as eduDC. Alternatively, DCs only cultured with medium represented ‘non-mucosal’ DCs.

Q: Which results are given for “SQNQQEKNEQELLELDKWASLWNWFNITNWLWYIK [P1]”?
A: TSLP secretion [1]: induces primary human nasal epithelial cells (HNECs) to secrete TSLP; miR-4485-3p increase, microRNA array ([2]; P1 125 μM, 6 hours): > 9 fold; number of differentially expressed microRNAs ([2]; P1 125 μM, 6 hours, microRNA array, p<0.05, 23 up-regulated, 16 down-regulated): 39; miR-375 expression ([2]; primary HNECs, P1 stimulation): not accompanied by a change in miR-375 expression; increase in miR-4485-3p expression, qPCR ([2]; upon P1 stimulation, n=4): 2.6±0.8 fold; secretion of MMP-9, CCL20, CCL2 and IL-10 [3]: selectively induced the secretion of MMP-9, CCL20, CCL2 and IL-10; expression of maturation markers CD83 and CD86 ([4]; 'non-mucosal' DCs, P1 125 μM overnight): has no effect; IFN-γ secretion ([4]; DC models upon P1 stimulation): remains unchanged upon P1-stimulation or slightly decreases in DC-EC; expression of TSLP receptor (TSLP-R and IL-7Rα) ([4]; DCs in all three models): significantly enhanced the expression of TSLP receptor; IL-12, IL-13, CCL2, CCL17, TNF-α, APRIL and BAFF secretion ([4]; DCs, DC-EC, eduDC): secreted equally in all three models; TSLP secretion ([4]; eduDC and DC-EC models): more modest; IL-6, IL-8, IL-10, CCL20, CCL22 and MMP-9 secretion ([4]; eduDC and DC-EC models compared with non-mucosal DCs): significant increase; expression of co-stimulatory molecules CD83 and CD86 ([4]; mucosal DCs (DC-EC or eduDCs), P1 125 μM overnight, versus untreated): significant up-regulation; IL-25, IL-33, IL-4, IL-5 secretion ([4]; whatever the model): remain undetectable
